In this assay the target is c-MET kinase (Homo sapiens (Human), UniProt P08581). The assay can be described thus: Assay of small molecular compounds for inhibiting the activity of c-MET kinase (LANCE TR-FRET). To be noted: read-out: CMET IC50. The class given is biochemical. Summed up:
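Eleven final concentrations from 2500 nM down to 0.042 nM, in 4% DMSO, were tested against human c-MET (2× stock 2 nM), with compound and enzyme premixed for 5 min. The phosphorylation reaction used 4× stock of 400 nM ULight-JAK-1 peptide and 40 μM ATP for 60 min at room temperature, then stop and detection steps. TR-FRET percent inhibition against positive and negative controls gave the IC50.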
For orientation: Time-resolved FRET reads energy transfer from a long-lived donor to a nearby acceptor.
Sequence of c-MET kinase (P08581 25-1390): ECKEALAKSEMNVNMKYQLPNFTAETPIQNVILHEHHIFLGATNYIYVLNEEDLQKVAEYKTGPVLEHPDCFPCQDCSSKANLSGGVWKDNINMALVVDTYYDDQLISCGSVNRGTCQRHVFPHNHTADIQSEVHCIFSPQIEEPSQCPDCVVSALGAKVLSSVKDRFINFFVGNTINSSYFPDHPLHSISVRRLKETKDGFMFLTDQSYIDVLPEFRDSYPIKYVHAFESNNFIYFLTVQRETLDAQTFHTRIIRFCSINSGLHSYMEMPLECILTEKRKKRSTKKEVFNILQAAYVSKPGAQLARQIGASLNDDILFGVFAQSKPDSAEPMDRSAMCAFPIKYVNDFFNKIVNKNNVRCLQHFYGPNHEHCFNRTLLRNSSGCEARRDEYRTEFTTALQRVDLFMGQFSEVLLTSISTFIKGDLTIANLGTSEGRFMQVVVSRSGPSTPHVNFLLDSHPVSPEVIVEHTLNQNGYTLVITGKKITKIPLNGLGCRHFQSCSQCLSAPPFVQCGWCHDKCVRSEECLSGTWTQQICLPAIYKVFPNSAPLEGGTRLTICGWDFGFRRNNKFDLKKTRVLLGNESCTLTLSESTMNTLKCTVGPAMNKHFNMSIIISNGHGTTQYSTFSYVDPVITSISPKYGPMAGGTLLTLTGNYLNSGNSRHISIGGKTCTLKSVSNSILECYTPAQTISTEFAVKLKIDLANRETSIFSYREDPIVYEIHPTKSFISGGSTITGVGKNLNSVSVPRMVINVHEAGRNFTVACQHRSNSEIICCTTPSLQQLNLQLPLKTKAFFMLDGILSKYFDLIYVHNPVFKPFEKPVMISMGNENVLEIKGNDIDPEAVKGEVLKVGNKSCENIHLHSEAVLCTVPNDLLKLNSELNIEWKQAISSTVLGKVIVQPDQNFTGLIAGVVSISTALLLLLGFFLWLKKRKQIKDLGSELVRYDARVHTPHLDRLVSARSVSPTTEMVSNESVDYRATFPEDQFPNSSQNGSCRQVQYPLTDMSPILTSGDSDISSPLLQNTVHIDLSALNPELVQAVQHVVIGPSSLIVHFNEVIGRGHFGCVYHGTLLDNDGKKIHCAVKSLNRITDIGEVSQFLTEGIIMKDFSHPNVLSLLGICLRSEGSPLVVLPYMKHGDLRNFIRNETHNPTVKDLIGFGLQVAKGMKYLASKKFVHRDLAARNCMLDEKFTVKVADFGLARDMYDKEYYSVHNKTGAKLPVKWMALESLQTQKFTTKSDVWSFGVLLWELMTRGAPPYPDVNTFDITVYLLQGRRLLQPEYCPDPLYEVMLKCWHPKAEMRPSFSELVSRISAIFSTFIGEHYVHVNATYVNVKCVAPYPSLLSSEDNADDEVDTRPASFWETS
The term IC50 denotes the concentration that gives 50% inhibition. `COc1cc2nccc(Oc3ccc(NC(=O)c4cn(C)c(=O)n(-c5ccc(F)cc5)c4=O)cc3)c2c2c1OCCO2` [Example 145, N-(4-((5-methoxy-2,3-dihydro-[1,4]dioxino[2,3-f]quinolin-10-yl)oxy)phenyl)-3-(4-fluorophenyl)-1-methyl-2,4-dioxo-1,2,3,4-tetrahydropyrimidine-5-carboxamide]: the IC50 was ≤ 50 nM. Regarding `CCn1cc(C(=O)Nc2ccc(Oc3ccnc4cc(OC)c5c(c34)OCCO5)cc2)c(=O)n(-c2ccc(F)cc2)c1=O` [Example 146, N-(4-((5-methoxy-2,3-dihydro-[1,4]dioxino[2,3-f]quinolin-10-yl)oxy)phenyl)-3-(4-fluorophenyl)-1-ethyl-2,4-dioxo-1,2,3,4-tetrahydropyrimidine-5-carboxamide], the IC50 is ≤ 50 nM. The result for `COCCOc1cc2nccc(Oc3ccc(NC(=O)c4cn(C)c(=O)n(-c5ccc(F)cc5)c4=O)cc3)c2c2c1OCCO2` [Example 147, N-(4-((5-(2-methoxyethoxy)-2,3-dihydro-[1,4]dioxino[2,3-f]quinolin-10-yl)oxy)phenyl)-3-(4-fluorophenyl)-1-methyl-2,4-dioxo-1,2,3,4-tetrahydropyrimidine-5-carboxamide] reads ≤ 50 nM; that for `CCn1cc(C(=O)Nc2ccc(Oc3ccnc4cc(OCCOC)c5c(c34)OCCO5)cc2)c(=O)n(-c2ccc(F)cc2)c1=O` [Example 148, N-(4-((5-(2-methoxyethoxy)-2,3-dihydro-[1,4]dioxino[2,3-f]quinolin-10-yl)oxy)phenyl)-3-(4-fluorophenyl)-1-ethyl-2,4-dioxo-1,2,3,4-tetrahydropyrimidine-5-carboxamide], ≤ 50 nM. Under `Cn1cc(C(=O)Nc2ccc(Oc3ccnc4cc(OCC(C)(C)O)c5c(c34)OCCO5)cc2)c(=O)n(-c2ccc(F)cc2)c1=O` [Example 149, N-(4-((5-(2-hydroxy-2-methylpropoxy)-2,3-dihydro-[1,4]dioxino[2,3-f]quinolin-10-yl)oxy)phenyl)-3-(4-fluorophenyl)-1-methyl-2,4-dioxo-1,2,3,4-tetrahydropyrimidine-5-carboxamide] stands ≤ 50 nM; under `CCn1cc(C(=O)Nc2ccc(Oc3ccnc4cc(OCC(C)(C)O)c5c(c34)OCCO5)cc2)c(=O)n(-c2ccc(F)cc2)c1=O` [Example 150, N-(4-((5-(2-hydroxy-2-methylpropoxy)-2,3-dihydro-[1,4]dioxino[2,3-f]quinolin-10-yl)oxy)phenyl)-3-(4-fluorophenyl)-1-ethyl-2,4-dioxo-1,2,3,4-tetrahydropyrimidine-5-carboxamide], ≤ 50 nM. Under `COc1cc2nccc(Oc3ccc(NC(=O)c4cn(C)c(=O)n(-c5ccc(F)cc5)c4=O)c(F)c3)c2c2c1OCCO2` [Example 153, N-(2-fluoro-4-((5-methoxy-2,3-dihydro-[1,4]dioxino[2,3-f]quinolin-10-yl)oxy)phenyl)-3-(4-fluorophenyl)-1-methyl-2,4-dioxo-1,2,3,4-tetrahydropyrimidine-5-carboxamide] stands ≤ 50 nM; under `COCCOc1cc2nccc(Oc3ccc(NC(=O)c4cn(C)c(=O)n(-c5ccc(F)cc5)c4=O)c(F)c3)c2c2c1OCCO2` [Example 155, N-(2-fluoro-4-((5-(2-methoxyethoxy)-2,3-dihydro-[1,4]dioxino[2,3-f]quinolin-10-yl)oxy)phenyl)-3-(4-fluorophenyl)-1-methyl-2,4-dioxo-1,2,3,4-tetrahydropyrimidine-5-carboxamide], ≤ 50 nM; under `CCn1cc(C(=O)Nc2ccc(Oc3ccnc4cc(OCCOC)c5c(c34)OCCO5)cc2F)c(=O)n(-c2ccc(F)cc2)c1=O` [Example 156, N-(2-fluoro-4-((5-(2-methoxyethoxy)-2,3-dihydro-[1,4]dioxino[2,3-f]quinolin-10-yl)oxy)phenyl)-3-(4-fluorophenyl)-1-ethyl-2,4-dioxo-1,2,3,4-tetrahydropyrimidine-5-carboxamide], ≤ 50 nM.

Source of the values: patent US12202835B2, “Substituted aromatic ring-linked dioxinoquinazolines and dioxinoquinolines as kinase inhibitors” (BEIJING SCITECH-MQ PHARMACEUTICALS LIMITED, priority 2018, dated 2025).
